From US20250049791A1, “Synthesis of MEK7 Inhibitors and methods of Use Thereof” (Northwestern University, priority 2023, published 2025)
Like-named read-outs stand apart in the source and are kept apart here.

Legend:
[1] = molecular target: T1, recombinant active full-length human MEK7 (Homo sapiens, UniProt O14733); assay: ADP-Glo kinase activity assay, MEK7 with JNK1 substrate; format: biochemical
T1 construct: recombinant active full-length human MEK7 (Carna Biosciences); purchased Carna Biosciences
T1 sequence (O14733 1-419): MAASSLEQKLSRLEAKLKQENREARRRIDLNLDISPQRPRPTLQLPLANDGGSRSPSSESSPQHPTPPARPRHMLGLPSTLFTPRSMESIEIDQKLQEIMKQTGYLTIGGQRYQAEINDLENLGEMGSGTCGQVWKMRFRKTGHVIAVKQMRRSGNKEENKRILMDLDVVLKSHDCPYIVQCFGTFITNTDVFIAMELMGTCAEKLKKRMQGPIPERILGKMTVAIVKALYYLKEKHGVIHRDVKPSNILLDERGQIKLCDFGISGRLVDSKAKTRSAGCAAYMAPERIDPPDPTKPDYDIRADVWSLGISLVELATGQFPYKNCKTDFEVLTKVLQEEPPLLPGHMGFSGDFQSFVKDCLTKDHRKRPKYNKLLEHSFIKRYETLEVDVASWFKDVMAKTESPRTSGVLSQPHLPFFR
Procedure: Procedure for a 5 μL Kinase reaction using the ADP-Glo Kinase Assay Kit from Promega. Staurosporine was used as the positive control, and DMSO (vehicle) was employed as the negative control. Activity of recombinant active full-length human MEK7 (Carna Biosciences) was measured with recombinant full-length human substrate JNK1 (MAPK8). Using a Mantis, a mixture of MEK7 and JNK1 was dispensed into a 384-well low volume white Proxiplate. For each well, 4 ng of MEK7 and 600 ng of JNK1 in kinase buffer (CST) were used, accounting for 1 μL of this mixture per well. Inhibitor was prepared in a DMSO solution (40 mM). A dose-response dilution was performed in a 384-well Echo transfer plate. Using an Echo Access, 10 nL of each solution was dispensed into the same 384-well low volume white Proxiplate as above. This mixture was allowed to incubate for 30 minutes at room temperature. Using a Mantis, 1 uL of an 8 μM ATP solution was added to each well, and the plate was allowed to incubate for another 1 hour at room temperature. Using the Mantis again, 4 μL of ADP Glo Reagent was dispensed into each well, and the plate was allowed to incubate for 45 min at room temperature. Finally, 9 μL of Kinase Detection Reagent was added manually to each well, and the plate was allowed to incubate for 45 minutes at room temperature. Luminescence was read on a Synergy Neo2 Plate Reader with filter cubes 3 and 114. Integration time was set to 0.20 seconds, gain set to 160, and read height set at 6 mm. All experiments were performed in triplicate on the plate, and at least in one separate technical duplicate was performed.
MEK4 selectivity was performed in the same manner with activated MEK4 (Carna Biosciences). Here, p-38α was employed as the kinase substrate in lieu of JNK1 due to the availability of reagents. […] To probe the ATP-competitive nature of 25, this compound was subjected to a similar assay forgoing the 30 minute incubation time described above (STAR Protocols 2021, 2, 100717). The results are tabulated below in compound characterization. Potency determined by duplicate of triplicates corresponded to a IC50 value, which is in line with the ratio difference observed among other covalent inhibitors (for examples, see Cell Chem. Biol. 2020, 27, 1285).

[2] = molecular target: T2, MAP2K7 recombinant protein (Homo sapiens, UniProt O14733); assay: LC/MS-MS determination of residue selectivity; format: binding
T2 construct: purchased Carna Biosciences 07-147-10; host or cells: E. coli
T2 sequence (O14733 1-419): T1 sequence (O14733 1-419)
Procedure: MAP2K7 recombinant protein was diluted, purified, and incubated as described above. After incubation, protein solution was denatured with 8 M urea for 10 minutes at 65° C., reduced with 12.5 mM DTT for 15 minutes at 65° C., and alkylated with 25 mM iodoacetamide in the absence of light for 30 minutes at 37° C. Protein solution was diluted with PBS to 2 M urea and divided into two digestion reactions: one with 2 μg trypsin and 10 μg chymotrypsin for 6 hours at 37° C., the other with 5 μg GluC for 6 hours at 37° C. Digested peptides were acidified with 5% formic acid and desalted using Sep-Pak C18 1 cc Vac Cartridge (Waters). Peptides were analyzed by liquid chromatography tandem mass-spectrometry using an Orbitrap Eclipse Tribrid Mass Spectrometer (Thermo Scientific) coupled to an Vanquish Neo UHPLC System (Thermo Scientific). Peptides were injected onto EASY-Spray HPLC Column (C18, 2 μm particle size, 75 μm inner diameter, 250 mm length) and separated at a flow rate of […] using the following gradient: 5% buffer B (80% acetonitrile with 0.1% formic acid) in buffer A (water with 0.1% formic acid) from 0-15 min, 5-45% buffer B from 15-155 min, 45-100% buffer B from 155-180 min. Raw data was searched in Proteome Discoverer 2.5 (Thermo Scientific).

[3] = test system: Jurkat and KOPTK1; assay: Washout cytotoxicity experiment; format: cell-based; conditions: 18 hours with compound, washed, 30 hours
Procedure: T-cell cell lines Jurkat and KOPTK1 were plated in triplicates (20×10^4 cells per 96-well plate) and cultured with different concentrations of DK-2403 compound for 18 hours. Cells were washed twice to remove DK-2403 and incubated for 30 hours. Cell viability was measured (48 hours) using CellTiter-Glo luminescent cell viability assay.

[4] = test system: JNK and ATF2 phosphorylation in T-ALL cells; assay: Immunoblot analysis of JNK and ATF2 phosphorylation; format: cell-based
Procedure: Cells were lysed with SDS lysis buffer containing (10 mM Tris pH 7.4 containing 1% SDS and 1 mM PMSF) and supplemented with Halt Protease and Phosphatase Inhibitor Cocktail (ThermoFisher) after 24 h of incubation. Protein lysates were electrophoresed onto SDS PAGE gel and transferred to the PVDF membrane using the iBLOT system. Antibodies phospho-SAPK/JNK (clone 81E11) (#4668) and SAPK/JNK (#9252) were used at 1:5000 dilution. Secondary antibodies cross-linked with HRP (anti-rabbit IgG #7074 and anti-mouse IgG #7076) were used for respective primary antibodies at concentrations 1:20,000. Protein detection was performed using West Femto Maximum Sensitivity Substrate (ThermoFisher) and Amersham Hyperfilm ECL (GE).

Which results are given for `O=C(CCl)Nc1cccc(Oc2cc(NCc3ccccc3)ncn2)c1` [Compound 25, N-(3-((6-(benzylamino)pyrimidin-4-yl)oxy)phenyl)-2-chloroacetamide]?
IC50 ([1]; 30 min preincubation, read-out: MEK7 IC50): 10 nM; IC50 ([1]; MEK7 IC50, first experiment (IC50±SEM, n=3), 30 min preincubation, first value in brackets): 17 nM; IC50 ([1]; MEK7 IC50, second experiment (IC50±SEM, n=3), 30 min preincubation, second value in brackets): < 1.4 nM; IC50 ([1]; MEK7 IC50 without preincubation, first experiment (n=3), without preincubation, first value in brackets): 67 ± 21 nM; IC50 ([1]; MEK7 IC50 without preincubation, second experiment (n=3), without preincubation, second value in brackets): 119 nM; IC50 ([1]; without 30 min preincubation, overall value, read-out: MEK7 IC50 without preincubation): 93 nM; IC50 ([1]; without preincubation, no unit printed, read-out: MEK7 IC50 without preincubation): 93 nM; cysteine residue covalently engaged, GluC digest [2]: Cys341; cysteine residue covalently engaged, trypsin/chymotrypsin digest [2]: Cys218; cytotoxicity after washout [3]: resistant to washout; concentration that potently attenuated JNK and ATF2 phosphorylation ([4]; 24 h incubation): 5 to 10 µM; effect on phosphorylation of JNK and ATF2 ([4]; western blot, dose-response): decreased phosphorylation
